From US6569895B1, “Compounds and methods for the treatment of cardiovascular, inflammatory and immune disorders” (Millennium Pharmaceuticals, Inc., priority 1995, dated 2003)
Several values for one entry are separate records, joined by “and”; a condition that tells them apart may be missing. Equal values may be shown once.

How the values were obtained:
[1] = biological target: T1, Cytosol 5-Lipoxygenase of Rat Basophile Leukemia Cells (Rattus norvegicus, UniProt P12527); test: Cytosol 5-lipoxygenase of rat basophilic leukemia cells (RBL-2H3 preparation); type: biochemical; details: RBL-2H3 cytosol preparation, [14C]arachidonic acid
T1 construct: endogenous in cells; host or cells: RBL-2H3 cells (sonicate, 20,000 x g supernatant)
T1 sequence (P12527 1-673): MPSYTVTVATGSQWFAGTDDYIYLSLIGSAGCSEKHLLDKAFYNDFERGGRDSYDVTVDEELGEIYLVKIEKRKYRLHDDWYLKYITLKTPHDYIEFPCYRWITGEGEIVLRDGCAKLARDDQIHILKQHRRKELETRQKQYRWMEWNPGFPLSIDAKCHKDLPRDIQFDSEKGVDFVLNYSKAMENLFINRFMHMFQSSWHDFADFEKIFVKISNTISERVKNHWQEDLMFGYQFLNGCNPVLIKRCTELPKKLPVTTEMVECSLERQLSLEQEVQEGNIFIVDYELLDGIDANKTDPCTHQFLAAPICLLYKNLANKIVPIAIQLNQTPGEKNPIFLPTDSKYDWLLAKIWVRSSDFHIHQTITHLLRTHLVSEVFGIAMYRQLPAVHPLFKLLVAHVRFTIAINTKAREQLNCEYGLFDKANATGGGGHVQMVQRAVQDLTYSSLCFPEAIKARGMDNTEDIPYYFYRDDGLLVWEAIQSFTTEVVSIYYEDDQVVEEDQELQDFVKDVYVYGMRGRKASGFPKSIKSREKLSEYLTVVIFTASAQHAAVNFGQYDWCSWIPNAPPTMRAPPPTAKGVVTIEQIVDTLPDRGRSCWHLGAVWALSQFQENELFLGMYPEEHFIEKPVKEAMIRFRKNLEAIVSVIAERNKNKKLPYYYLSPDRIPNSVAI
Procedure: A wide variety of biological assays have also been used to evaluate the ability of a compound to inhibit the enzyme 5-lipoxygenase. For example, a cytosol 5-lipoxygenase of rat basophilic leukemia cells (RBL) has been widely utilized in studies on leukotriene biosynthesis. Compounds that inhibit 5-lipoxygenase decrease the levels of leukotrienes.
RBL-2H3 cells were grown to confluence in tissue culture flasks according to Carter et al. (J Pharm Exp Ther 256(3); 929-937, 1991). The cells were harvested and washed five times in calcium-and magnesium-free D-PBS. The cells were suspended at 2×10^7/M in 10 mM BES, 10 mM PIPES, pH 6.8, 1 mM EDTA and then sonicated. The sonicate was centrifuged at 20,000×g for 20 minutes at 4° C. The supernatant was then removed and stored in aliquots at −70° C.
The 5-LO activity in the RBL-2H3 preparation was determined as follows: 0.1 ml reactions consisting of 0.7 mM CaCl2, 100 mM NaCl, 1 mM EDTA, 10 mM BES, 10 MM PIPES, pH 7.4, varying concentrations of test compound dissolved in DMSO (7.5% DMSO final in assay), and an amount of the RBL-2H3 preparation that will convert 15% of the arachidonic acid substrate mixture to oxygenated products (determined experimentally for each RBL-2H3preparation), were incubated for 20 minutes at room temperature. The reaction was initiated by the addition of 5 μl of the arachidonic acid substrate mixture (0.944 nmol [^14C] arachidonic acid and 6.06 nmol arachidonic acid per assay in 0.028% NH4OH), and allowed to proceed for 5 minutes at 37° C. The reaction was terminated by the addition of 0.12 ml of a mixture of (i) 1.66 mg/ml triphenylphosphine in ethyl ether; (ii) methanol; and (iii) 0.2M citric acid (30:4:1); followed by centrifugation at 1000×g for 1 minute. […] The film was developed, scanned using a densitometer, and the peak areas of arachidonic acid and its product(s) are calculated. The percent inhibition was determined from the amount of [14C]-arachidonic acid converted into oxygenated products in samples containing test compound relative to that of control samples (no test compound).

[2] = tested on: 5-Lipoxygenase (LTB4 in whole blood); test: Ex-vivo mouse whole blood 5-lipoxygenase evaluation (LTB4); type: in vivo; details: 3 mg/k iv, 60 minutes
Procedure: (§1) CD-1 female mice, weighing 18-25 grams, and CD female rats, weighing 150-230 grams, were obtained from Charles River Labs. Test compounds were dissolved in 0.5% DMSO in 0.9% NaCl, for administration in mice (0.5 mg/ml) and in an alcohol vehicle (2% benzyl alcohol, 1% ethanol, 40% PEG 300, 10% propylene glycol, 47% of 5% dextrose and 3.5% pluronic F-68 in DiH2O) for use in rats (5 mg/ml). […] Heparinized whole blood (0.3 ml) was added into 1.5 ml Eppendorf centrifuge tube containing […] of 2 mM calcium ionophore A23187 (the final concentration of A23187 was […]). The sample was incubated for 30 minutes in a water bath at 37° C., and then centrifuged for 2 minutes. The plasma was diluted (×120) and assayed for LTB4 using EIA.

[3] = tested on: 5-Lipoxygenase (LTB4 in whole blood); test: Ex-vivo rat whole blood 5-lipoxygenase evaluation (LTB4); type: in vivo; details: 2 mg/k po
Procedure: as §1

[4] = tested on: Leukotriene B4 production in ionophore-stimulated human whole blood; test: Inhibition of leukotriene B4 production in ionophore-stimulated human whole blood; type: cell-based; details: A23187 stimulated, LTB4 by EIA, read-out: HWB IC50
Procedure: Another biological assay used to evaluate the ability of a compound to inhibit the enzyme 5-lipoxygenase is based on the classic pharmacological model of inflammation induced by inhibition of LTB, from ionophore stimulated human whole blood.
Human blood was drawn into heparinized blood collection tubes, and aliquoted in 1 ml portions into 1.5 ml microfuge tubes. Test compound ([…]) of varying concentrations, dissolved in DMSO, was added to the blood sample and incubated for 15 minutes at 37° C. Calcium ionophore ([…], A23187) in DMSO was added to a final concentration of […], and the samples were incubated for 30 minutes at 37° C. Samples are then centrifuged at 1100×g (2500 rpm, H1000B rotor, in a Sorvall centrifuge) for 10 minutes at 4° C. Supernatant ([…]) was transferred into a 1.5 ml microfuge tube, […] of cold methanol added, and proteins precipitated on ice for 30 minutes. The samples were centrifuged at 110×g for 10 minutes at 4° C., and the supernatant assayed for LTB4 using a commercially available EIA kit (Cayman Chemical) according to manufacturer's specifications.

PAF = PAF (Homo sapiens, UniProt P25105); details: background statement; cited from earlier work
Chain of PAF (P25105 whole entry): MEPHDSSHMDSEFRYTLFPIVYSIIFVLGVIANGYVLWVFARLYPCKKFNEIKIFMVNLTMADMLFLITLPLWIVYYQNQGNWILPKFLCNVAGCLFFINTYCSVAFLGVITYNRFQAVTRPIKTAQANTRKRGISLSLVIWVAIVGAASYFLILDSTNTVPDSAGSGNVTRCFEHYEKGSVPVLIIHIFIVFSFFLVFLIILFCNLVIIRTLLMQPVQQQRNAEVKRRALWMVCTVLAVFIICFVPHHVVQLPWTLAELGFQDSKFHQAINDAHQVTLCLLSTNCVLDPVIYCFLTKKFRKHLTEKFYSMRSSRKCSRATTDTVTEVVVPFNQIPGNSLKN

5-lipoxygenase = biological target: T2, 5-lipoxygenase (Homo sapiens, UniProt P09917); details: background statement; cited from earlier work
T2 sequence (P09917 1-674): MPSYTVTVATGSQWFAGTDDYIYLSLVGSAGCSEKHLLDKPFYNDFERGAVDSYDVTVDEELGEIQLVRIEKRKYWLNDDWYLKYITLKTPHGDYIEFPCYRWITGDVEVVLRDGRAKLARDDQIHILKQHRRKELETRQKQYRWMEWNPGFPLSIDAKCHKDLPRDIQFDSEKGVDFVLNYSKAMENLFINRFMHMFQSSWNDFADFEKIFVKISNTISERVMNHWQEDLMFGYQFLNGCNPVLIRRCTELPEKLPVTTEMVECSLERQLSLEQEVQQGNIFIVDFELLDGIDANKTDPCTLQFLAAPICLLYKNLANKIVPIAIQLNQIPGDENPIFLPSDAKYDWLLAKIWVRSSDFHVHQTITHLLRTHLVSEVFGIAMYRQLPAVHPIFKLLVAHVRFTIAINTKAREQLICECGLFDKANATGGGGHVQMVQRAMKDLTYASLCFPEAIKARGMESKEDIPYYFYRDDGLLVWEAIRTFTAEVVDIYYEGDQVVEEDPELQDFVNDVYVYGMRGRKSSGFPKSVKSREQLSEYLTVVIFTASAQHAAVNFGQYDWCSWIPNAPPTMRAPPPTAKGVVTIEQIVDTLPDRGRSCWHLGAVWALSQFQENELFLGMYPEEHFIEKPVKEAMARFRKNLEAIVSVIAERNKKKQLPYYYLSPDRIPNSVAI

| IC50 [1] | IC50 [4] | SMILES | other results |
| --- | --- | --- | --- |
| 1.23 µM and 1.4 µM | – | NC(=O)N(O)CCCC[C@@H]1CC[C@@H](COc2ccc(F)cc2)O1 | – |
| 1.38 µM and 1.49 µM and 0.56 µM and 1.6 µM and 0.72 µM | – | NC(=O)N(O)CCC#C[C@@H]1CC[C@@H](COc2ccc(F)cc2)O1 | ex vivo LTB4 % inh. [2]: 22% |
| – | 0.43 µM | NC(=O)N(O)CCC#C[C@H]1CC[C@@H](COc2ccc(F)cc2)O1 | ex vivo LTB4 % inh. ([3]; 60 minutes): 86%; ex vivo LTB4 % inh. ([3]; 360 minutes): 63% |
| – | 0.15 µM | NC(=O)N(O)CCC#C[C@H]1CC[C@H](COc2ccc(F)cc2)O1 | – |
| – | – | COc1cc([C@H]2CC[C@H](c3cc(OC)c(OC)c(OC)c3)S2)cc(OC)c1OC (relative stereo) [L-653,150, trans-2,5-bis-(3,4,5-trimethoxyphenyl)tetrahydrothiophene] | PAF antagonist activity (PAF): potent PAF antagonist; inhibition of 5-lipoxygenase (5-lipoxygenase): moderate inhibitor of 5-lipoxygenase |
| 0.95 µM | – | NC(=O)N(O)CCCC[C@@H]1CCC(COc2ccc(F)cc2)O1 (single isomer, unassigned) | – |
